Results reported in patent US20240109873A1, “ANTAGONISTS OF THE MUSCARINIC ACETYLCHOLINE RECEPTOR M4” (Vanderbilt University, priority 2020, published 2024).

Molecular target: T1, human mAChR M1 (Homo sapiens, UniProt P11229)
T1 construct: host or cells: CHO-K1 (ATCC), stably transfected
T1 sequence (P11229 1-460): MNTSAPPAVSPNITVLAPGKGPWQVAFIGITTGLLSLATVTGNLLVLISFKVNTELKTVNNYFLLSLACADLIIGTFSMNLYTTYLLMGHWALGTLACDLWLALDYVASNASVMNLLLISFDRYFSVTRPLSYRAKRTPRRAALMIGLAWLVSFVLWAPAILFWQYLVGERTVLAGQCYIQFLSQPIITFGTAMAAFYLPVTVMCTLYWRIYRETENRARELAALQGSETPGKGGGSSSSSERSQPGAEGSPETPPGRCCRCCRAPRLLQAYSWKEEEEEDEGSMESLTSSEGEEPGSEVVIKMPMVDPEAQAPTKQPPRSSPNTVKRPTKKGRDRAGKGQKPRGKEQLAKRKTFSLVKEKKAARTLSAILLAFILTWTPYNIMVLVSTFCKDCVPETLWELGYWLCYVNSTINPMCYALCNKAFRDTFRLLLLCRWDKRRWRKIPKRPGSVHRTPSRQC
Assay: mAChR M1 cell-based functional assay (calcium flux, antagonism of EC80 acetylcholine response, hM1 CHO-K1 cells)
Conditions: for Human M1 Emin: % ACh maximum at 30 μM; for IC50: decrease of the response elicited by an EC80 concentration of acetylcholine, CHO-K1 cells
Experimental: hM1 cDNA was purchased from Missouri S&T cDNA Resource and used to stably transfect CHO-K1 cells purchased from the American Type Culture Collection using Lipofectamine2000. hM1 cells were grown in Ham's F-12 medium containing 10% heat-inactivated fetal bovine serum (FBS), 20 mM HEPES, and 50 μg/mL G418 sulfate.
For high throughput measurement of agonist-evoked increases in intracellular calcium, CHO-K1 cells stably expressing muscarinic receptors were plated in growth medium lacking G418 and hygromycin at 15,000 cells/20 μL/well in Greiner 384-well black-walled, tissue culture (TC)-treated, clear-bottom plates (VWR). Cells were incubated overnight at 37° C. and 5% CO2. The next day, cells were washed using an ELX 405 (BioTek) with four washes (80 μL) of assay buffer then aspirated to 20 μL. Next, 20 μL of 16 μM Fluo-4/acetoxymethyl ester (Invitrogen, Carlsbad, CA) prepared as a 2.3 mM stock in DMSO and mixed in a 1:1 ratio with 10% (w/v) Pluronic F-127 and diluted in assay buffer was added to the wells and the cell plates were incubated for 50 min at 37° C. and 5% CO2. Dye was removed by washing with the ELX 405 (four 80 μL washes of assay buffer) then aspirated to 20 μL. Compound master plates were formatted in an 11-point CRC format (1:3 dilutions) in 100% DMSO with a starting concentration of 10 mM using the BRAVO liquid handler (Agilent). Test compound CRCs were then transferred to daughter plates (240 nL) using the Echo acoustic plate reformatter (Labcyte, Sunnyvale, CA) and then diluted into assay buffer (40 μL) to a 2× stock using a Thermo Fisher Combi (Thermo Fisher Scientific, Waltham, MA).
Calcium flux was measured using the Functional Drug Screening System (FDSS) 6000 (Hamamatsu Corporation, Tokyo, Japan) as an increase in the fluorescent static ratio. Compounds were applied to cells (20 μL, 2×) using the automated system of the FDSS 6000 at 4 s into the 300 s protocol and the data were collected at 1 Hz. At 144 s into the 300 s protocol, 10 μL of an EC20 concentration of the muscarinic receptor agonist acetylcholine was added (5×), followed by the addition of 12 μL an EC80 concentration of acetylcholine at the 230 s time point (5×). Agonist activity was analyzed as a concentration-dependent increase in calcium mobilization upon compound addition. Emax values for agonist activity are expressed relative to the maximum for acetylcholine. Positive allosteric modulator activity was analyzed as a concentration-dependent increase in the EC20 acetylcholine response. Antagonist activity was analyzed as a concentration-dependent decrease in the EC80 acetylcholine response; for the purposes of the tables herein, an IC50 (inhibitory concentration 50) was calculated as a concentration-dependent decrease of the response elicited by an EC80 concentration of acetylcholine. […]
The above-described assay was also operated in a second mode where an appropriate fixed concentration of the present compounds were added to the cells after establishment of a fluorescence baseline for about 3 seconds, and the response in cells was measured. 140 s later the appropriate concentration of agonist was added and readings taken for an additional 106 s. Data were reduced as described above and the EC50 values for the agonist in the presence of test compound were determined by nonlinear curve fitting. […]

SMILES | Human M1 Emin | human mAChR M1 antagonist activity, comparison in words (compound 61 versus compound 62, from Table 3) | IC50
[2H]C([2H])([C@H]1CCOC(C)(C)C1)N1C[C@H]2C[C@H](Nc3ccc(-c4cccnc4C(F)(F)F)nn3)C[C@H]2C1 (single isomer, unassigned) [Compound 61] | 20% | less human mAChR M1 antagonist activity than compound 62 | > 10000 nM
[2H]C([2H])([C@@H]1CCOC(C)(C)C1)N1C[C@H]2C[C@H](Nc3ccc(-c4cccnc4C(F)(F)F)nn3)C[C@H]2C1 [Compound 62, (3aR,5s,6aS)-2-(((R)-2,2-dimethyltetrahydro-2H-pyran-4-yl)methyl-d2)-N-(6-(2-(trifluoromethyl)pyridin-3-yl)pyridazin-3-yl)octahydrocyclopenta[c]pyrrol-5-amine] | 6% |  | 610 nM
